Reference: ChEMBL document CHEMBL1201862, “PubChem BioAssay data set” (2004)
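The compound was tested at five concentrations on cells cultured in 96-well plates, with a 48-hour exposure period. Here, GI50 denotes the concentration required for 50% inhibition of growth.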 Activity calls are given as the source filed them. Rule as the data show it: active = GI50 up to about 1.1 µM and inactive = higher.

Legend:
Test in all cases: NCI-60 cell line screen, 48 h
[1] = system: 786-0
[2] = system: A498
[3] = system: A549
[4] = system: ACHN
[5] = system: BT-549
[6] = system: CAKI-1
[7] = system: CCRF-CEM
[8] = system: COLO 205
[9] = system: DU-145
[10] = system: EKVX
[11] = system: HCC 2998
[12] = system: HCT-116
[13] = system: HCT-15
[14] = system: HL-60
[15] = system: HOP-62
[16] = system: HOP-92
[17] = system: HT-29
[18] = system: Hs-578T
[19] = system: IGROV-1
[20] = system: K562
[21] = system: KM12
[22] = system: LOX IMVI
[23] = system: M14
[24] = system: MCF7
[25] = system: MDA-MB-231
[26] = system: MDA-MB-435
[27] = system: MDA-N
[28] = system: MOLT-4
[29] = system: Malme-3M
[30] = system: NCI-H226
[31] = system: NCI-H23
[32] = system: NCI-H460
[33] = system: NCI-H522
[34] = system: NCI/ADR-RES
[35] = system: OVCAR-3
[36] = system: OVCAR-4
[37] = system: OVCAR-5
[38] = system: OVCAR-8
[39] = system: PC-3
[40] = system: RPMI-8226
[41] = system: RXF 393
[42] = system: SF-268
[43] = system: SF-295
[44] = system: SF-539
[45] = system: SK-MEL-28
[46] = system: SK-MEL-2
[47] = system: SK-MEL-5
[48] = system: SK-OV-3
[49] = system: SN12C
[50] = system: SNB-19
[51] = system: SNB-75
[52] = system: SR
[53] = system: SW-620
[54] = system: T47D
[55] = system: TK-10
[56] = system: U-251
[57] = system: UACC-257
[58] = system: UACC-62
[59] = system: UO-31

Measured: GI50

C[C@@]1(CCCCCCCCCCc2ccccc2)C[C@@]2(C)OC(=O)C[C@H]2OO1
inactive: [1] 1510 nM | [2] 19700 nM | [3] 2760 nM | [4] 2200 nM | [6] 30300 nM | [7] 1550 nM | [8] 1700 nM | [9] 2770 nM | [10] 2520 nM | [11] 1660 nM | [12] 1450 nM | [15] 1570 nM | [17] 1460 nM | [18] 2470 nM | [19] 1750 nM | [20] 1680 nM | [21] 1810 nM | [22] 2050 nM | [23] 1510 nM | [24] 1560 nM | [25] 1670 nM | [26] 1810 nM | [27] 1990 nM | [28] 1690 nM | [29] 1540 nM | [30] 3100 nM | [31] 1550 nM | [32] 1960 nM | [33] 1720 nM | [34] 1680 nM | [35] 1790 nM | [36] 2170 nM | [37] 1760 nM | [38] 1430 nM | [39] 1770 nM | [40] 1850 nM | [41] 1930 nM | [42] 1800 nM | [43] 1820 nM | [44] 1570 nM | [45] 2070 nM | [46] 20900 nM | [47] 1440 nM | [48] 2480 nM | [49] 1810 nM | [50] 2260 nM | [51] 2810 nM | [52] 1880 nM | [53] 1680 nM | [54] 2490 nM | [55] 2830 nM | [56] 1550 nM | [57] 2120 nM | [58] 1800 nM | [59] 1890 nM
active: [5] 479 nM | [14] 399 nM | [16] 769 nM
1730 nM: [13]

COC(=O)c1ccc(CCc2cc(O)c(Br)cc2O)cc1
13400 nM: [13]
inactive: [1] 14400 nM | [2] 22100 nM | [3] 19500 nM | [4] 13200 nM | [5] 4630 nM | [6] 10300 nM | [7] 1980 nM | [8] 12600 nM | [9] 14400 nM | [10] 16900 nM | [11] 17700 nM | [12] 5380 nM | [14] 1860 nM | [15] 17600 nM | [16] 12900 nM | [17] 16800 nM | [18] 33300 nM | [19] 14600 nM | [20] 1740 nM | [21] 15100 nM | [22] 13700 nM | [23] 15600 nM | [24] 13500 nM | [25] 15100 nM | [26] 8490 nM | [27] 15700 nM | [28] 2420 nM | [29] 15700 nM | [30] 21400 nM | [31] 10400 nM | [32] 16800 nM | [33] 3160 nM | [34] 14300 nM | [35] 8020 nM | [36] 11200 nM | [37] 18500 nM | [38] 16000 nM | [39] 8020 nM | [40] 3350 nM | [41] 16600 nM | [42] 13500 nM | [43] 14100 nM | [44] 8300 nM | [45] 17500 nM | [46] 18900 nM | [47] 11500 nM | [48] 25400 nM | [49] 15000 nM | [50] 17400 nM | [51] 26800 nM | [52] 3200 nM | [53] 15000 nM | [54] 18600 nM | [55] 14500 nM | [56] 12600 nM | [57] 15500 nM | [58] 14100 nM | [59] 6470 nM
